# Test results taken from paper PMC3185582 (Viruses, 2010).
# Read-outs that look alike come from different tables or passages of the source.
# What was measured:
# [1] = system: vaccinia virus; assay type: cell-based
# [2] = system: cowpox virus; assay type: cell-based
# [3] = target: CYP2C19 (Homo sapiens, UniProt P33261); assay: in vitro
# [4] = target: CYP1A2 (Homo sapiens, UniProt P05177); assay: in vitro
# [5] = 300 mg/kg, repeat dose studies
# [6] = system: Rabbitpox; conditions: rabbit, in vivo, cited from earlier work
# [7] = mouse, in vivo
# [8] = system: variola virus; conditions: cynomolgus monkey, in vivo, cited from earlier work
# [9] = methanol, ethanol and acetonitrile
# [10] = target: CYP2B6 (Homo sapiens, UniProt P20813); assay: in vitro
# Chain of CYP2B6 (P20813 whole entry): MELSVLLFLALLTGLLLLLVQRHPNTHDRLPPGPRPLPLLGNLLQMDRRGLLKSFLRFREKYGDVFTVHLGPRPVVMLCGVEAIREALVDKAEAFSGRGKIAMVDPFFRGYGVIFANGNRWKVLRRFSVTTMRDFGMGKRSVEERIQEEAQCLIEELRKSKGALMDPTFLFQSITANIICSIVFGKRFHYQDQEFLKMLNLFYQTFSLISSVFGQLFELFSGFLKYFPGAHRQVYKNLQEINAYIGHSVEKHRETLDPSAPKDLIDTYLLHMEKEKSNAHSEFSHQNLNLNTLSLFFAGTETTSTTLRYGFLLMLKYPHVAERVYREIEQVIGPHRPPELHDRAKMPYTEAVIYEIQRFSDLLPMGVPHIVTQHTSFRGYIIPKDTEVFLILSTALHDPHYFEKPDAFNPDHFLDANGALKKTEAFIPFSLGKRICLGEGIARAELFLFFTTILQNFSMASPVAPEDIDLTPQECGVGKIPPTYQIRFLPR
# [11] = mouse, in vivo; remark: listed apart in the source
# [12] = in vivo; conditions: cynomolgus monkey
# [13] = system: unrelated viruses; conditions: read-out: EC50 for inhibition of viral replication; cited from earlier work
# [14] = system: mammalian cell
# [15] = not given; remark: listed apart in the source
# [16] = in vivo; conditions: dog
# [17] = system: p37 with Rab9 and TIP47; conditions: cited from earlier work
# [18] = in vivo; conditions: Sprague-Dawley, rat, po, 30 mg/kg
# [19] = system: Caco-2
# [20] = not given; remark: listed apart in the source
# [21] = in vivo; conditions: BALB/c, mouse
# [22] = in vivo; conditions: BALB/c, mouse, 30 mg/kg
# [23] = system: variola virus; parameters: species or system cynomolgus macaques; conditions: cynomolgus monkey, in vivo
# [24] = not given; remark: listed apart in the source
# [25] = 12 daily doses of 300 mg/kg
# [26] = system: cytochrome P450 (CYP); conditions: 10 μM (3,700 ng/mL)
# [27] = system: CYP 2C19
# [28] = system: ectromelia virus; conditions: read-out: EC50 for inhibition of viral replication; cited from earlier work
# [29] = top dose 2000 mg/kg
# [30] = system: bacterial
# [31] = system: vaccinia virus; conditions: CPE assay; read-out: EC50 for inhibition of viral replication; cited from earlier work
# [32] = in vivo; conditions: both, cynomolgus, monkey
# [33] = monkey or human microsomes
# [34] = system: vaccinia virus in BSC-40 cell monolayers; conditions: 10 μM, 5 pfu/cell; ref Chen et al. [48]; cited from earlier work
# [35] = system: poxvirus; conditions: mouse, in vivo; cited from earlier work
# [36] = system: monkeypox virus; conditions: cynomolgus monkey, in vivo, cited from earlier work
# [37] = system: monkeypox virus clinical isolates; conditions: cited from earlier work
# [38] = system: vero and BSC40 cells; conditions: ST-246 treatment, 50 uM; unpublished work [21]
# [39] = system: variola virus clinical isolates; conditions: cited from earlier work
# [40] = system: cytochrome P450 isozymes
# [41] = target: CYP2C8 (Homo sapiens, UniProt P10632); assay: in vitro
# Chain of CYP2C8 (P10632 whole entry): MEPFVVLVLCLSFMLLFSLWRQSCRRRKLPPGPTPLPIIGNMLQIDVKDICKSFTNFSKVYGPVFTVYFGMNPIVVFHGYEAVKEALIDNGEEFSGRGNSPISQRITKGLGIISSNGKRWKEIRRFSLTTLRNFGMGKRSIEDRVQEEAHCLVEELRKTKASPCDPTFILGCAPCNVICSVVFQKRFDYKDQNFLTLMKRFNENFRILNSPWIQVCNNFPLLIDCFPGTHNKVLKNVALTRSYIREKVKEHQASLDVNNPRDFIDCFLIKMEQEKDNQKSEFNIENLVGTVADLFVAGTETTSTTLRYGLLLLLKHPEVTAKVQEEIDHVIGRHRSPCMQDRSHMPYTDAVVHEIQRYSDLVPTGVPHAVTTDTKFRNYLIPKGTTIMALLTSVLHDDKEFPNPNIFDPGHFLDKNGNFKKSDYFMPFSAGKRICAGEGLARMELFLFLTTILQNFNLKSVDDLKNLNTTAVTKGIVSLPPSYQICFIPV
# [42] = system: monkeypox virus; parameters: species or system prairie dogs; conditions: dog, in vivo
# [43] = for increase in AUC values (accumulation): 28 day repeat dose study
# [44] = system: Monkeypox; conditions: in vivo, cited from earlier work
# [45] = system: Ectromelia; conditions: mouse, in vivo, cited from earlier work
# [46] = target: CYP2E1 (Homo sapiens, UniProt P05181); assay: in vitro
# Chain of CYP2E1 (P05181 whole entry): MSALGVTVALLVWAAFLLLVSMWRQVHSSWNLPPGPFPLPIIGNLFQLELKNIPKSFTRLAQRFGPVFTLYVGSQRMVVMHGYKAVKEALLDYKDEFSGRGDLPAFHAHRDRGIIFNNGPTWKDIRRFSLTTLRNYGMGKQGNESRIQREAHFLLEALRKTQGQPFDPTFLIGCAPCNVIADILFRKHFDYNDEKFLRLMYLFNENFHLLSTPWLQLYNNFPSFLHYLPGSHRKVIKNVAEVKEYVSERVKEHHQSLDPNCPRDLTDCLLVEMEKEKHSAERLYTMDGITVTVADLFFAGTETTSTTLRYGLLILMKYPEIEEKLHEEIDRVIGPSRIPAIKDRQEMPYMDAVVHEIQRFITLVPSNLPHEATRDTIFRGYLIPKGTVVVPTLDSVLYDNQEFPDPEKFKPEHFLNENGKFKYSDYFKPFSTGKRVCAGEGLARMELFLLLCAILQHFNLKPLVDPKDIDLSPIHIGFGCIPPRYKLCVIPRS
# [47] = system: CYP 2B6
# [48] = system: Cowpox; conditions: mouse, in vivo, cited from earlier work
# [49] = system: monkeypox virus; parameters: species or system cynomolgus macaques; conditions: cynomolgus monkey, in vivo
# [50] = system: vaccinia virus in BSC-40 cell monolayers; assay type: cell-based
# [51] = rat, mouse and dog microsomes
# [52] = system: Vaccinia; conditions: mouse, in vivo, cited from earlier work
# [53] = not given; remark: listed apart in the source
# [54] = system: orthopoxviruses; parameters: species or system mice; conditions: mouse, in vivo
# [55] = system: Vaccinia; conditions: mouse, in vivo, po, 100 mg/kg
# [56] = system: selected cell lines from mouse, rabbit, monkey, and humans; conditions: cited from earlier work
# [57] = single oral dose, tidal volume
# [58] = by 96 hours after oral administration
# Chain of CYP1A2 (P05177 whole entry): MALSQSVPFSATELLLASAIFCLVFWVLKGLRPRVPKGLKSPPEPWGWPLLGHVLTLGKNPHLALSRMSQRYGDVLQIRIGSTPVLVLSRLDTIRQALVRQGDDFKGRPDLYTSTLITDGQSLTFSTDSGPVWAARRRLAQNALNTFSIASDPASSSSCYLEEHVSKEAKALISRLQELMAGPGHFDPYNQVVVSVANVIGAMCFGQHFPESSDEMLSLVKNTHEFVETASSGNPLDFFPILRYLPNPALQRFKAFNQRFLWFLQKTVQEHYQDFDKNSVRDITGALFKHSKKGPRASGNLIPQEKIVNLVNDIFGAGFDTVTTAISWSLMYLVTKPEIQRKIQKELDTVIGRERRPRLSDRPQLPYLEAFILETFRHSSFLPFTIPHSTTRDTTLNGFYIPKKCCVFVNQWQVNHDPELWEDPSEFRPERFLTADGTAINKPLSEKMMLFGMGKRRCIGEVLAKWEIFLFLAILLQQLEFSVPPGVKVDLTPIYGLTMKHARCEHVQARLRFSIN
# Chain of CYP2C19 (P33261 whole entry): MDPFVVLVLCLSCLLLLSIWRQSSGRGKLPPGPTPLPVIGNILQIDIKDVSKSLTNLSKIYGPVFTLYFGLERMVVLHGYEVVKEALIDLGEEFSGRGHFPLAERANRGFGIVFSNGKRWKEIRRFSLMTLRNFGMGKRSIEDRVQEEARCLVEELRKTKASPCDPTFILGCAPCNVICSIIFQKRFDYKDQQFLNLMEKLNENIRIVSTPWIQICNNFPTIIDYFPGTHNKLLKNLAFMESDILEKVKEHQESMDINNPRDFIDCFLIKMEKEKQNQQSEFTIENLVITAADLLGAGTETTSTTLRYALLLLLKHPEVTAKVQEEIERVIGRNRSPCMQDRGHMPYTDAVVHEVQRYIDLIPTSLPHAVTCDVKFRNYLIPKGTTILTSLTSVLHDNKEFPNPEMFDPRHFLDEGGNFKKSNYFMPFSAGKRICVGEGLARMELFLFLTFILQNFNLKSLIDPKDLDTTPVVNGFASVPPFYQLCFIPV
smiles,measurement,setting,value
O=C(NN1C(=O)C2C3C=CC(C4CC34)C2C1=O)c1ccc([N+](=O)[O-])cc1 (centres unmarked) [4-nitrophenyl],fold more potent than the 4-dimethylaminophenyl analog,[1],100 fold
same,fold more potent than the 4-dimethylaminophenyl analog,[2],100 fold
"O=C(NN1C(=O)[C@@H]2[C@@H]3C=C[C@@H]([C@H]4C[C@@H]34)[C@@H]2C1=O)c1ccc(C(F)(F)F)cc1 [ST-246, Tecovirimat]",inhibition at 300 µM,[3],< 50%
same,radiolabel in the milk,nursing dams,< 1%
same,radiolabel in the placenta,pregnant mice,only very low levels
same,inhibition at 300 µM,[4],< 50%
same,QTc,[5],no prolongation
same,"Optimal oral dose mg/kg, s.i.d.",[6]; po,40 mg/kg
same,Time of treatment,[6],48 h.p.i. (100%)
same,Time of treatment (% efficacy),[6],48 h.p.i. (100%)
same,"fertility, fetal resorptions, fetal abnormalities or toxicity",[7],no evidence
same,"Optimal oral dose mg/kg, s.i.d.",[8]; po,10 mg/kg
same,Time of treatment,[8],24 h.p.i. (100%)
same,Time of treatment (% efficacy),[8],24 h.p.i. (100%)
same,solubility in organic solvents,[9],very soluble
same,inhibition at 300 µM,[10],< 50%
same,chromosomal damage or bone marrow toxicity,[11],did not cause
same,clearance,"[12]; both, iv, 1 mg/kg",~18.3 mL/min/kg
same,bioavailability,[12]; fasted,~25%
same,bioavailability,[12]; fed state,~50%
same,EC50,[13],> 40000 nM
same,genotoxicity,[14],not genotoxic
same,maternal toxicity,"[15]; Segment II study, highest dose 100 mg/kg",some maternal toxicity
same,"fertility, fetal resorptions, fetal abnormalities or toxicity","[15]; rabbit, in vivo",no evidence
same,MTD,[16],30 mg/kg
same,interaction of p37 with Rab9 and TIP47,[17],blocks
same,bioavailability,[18]; female,33%
same,bioavailability,[18]; male,90%
same,Caco-2 membrane permeability,[19],good
same,time to nearly complete elimination of radioactivity,[20]; after oral administration,≤ 96 h
same,radioactivity eliminated in the urine,[20]; [58],24%
same,radioactivity eliminated through the feces,[20]; [58],approximately 72%
same,NOAEL at 3 months,[21]; 1000 mg/kg,1000 mg/kg
same,MTD,[21]; 2000 mg/kg,2000 mg/kg
same,MTD at 28 days,[21]; 2000 mg/kg,2000 mg/kg
same,NOAEL at 28 days,[21]; 2000 mg/kg,2000 mg/kg
same,bioavailability,[22],~40%
same,lesion numbers compared to placebo-treated animals,[23],reduced lesion numbers
same,clinical observations,[24]; 300 mg/kg,ataxia was observed four hours post dose in one female NHP
same,NOEL,[24]; 3 Month study,300 mg/kg
same,NOEL,[24]; 28 Day repeat dose study,300 mg/kg
same,multiple-dose NOEL,[24]; monkey,300 mg/kg/day
same,clinical observations,[24]; single dose 1000 mg/kg,This was also observed
same,clinical observations,"[24]; single oral dose 2000 mg/kg, male and female",decreased activity and ataxia
same,electroencephalograms and seizure thresholds,[25],no evidence of altered electroencephalograms or lowered seizure thresholds
same,cytochrome P450 (CYP) induction,[26],no significant
same,CYP induction,[27],induction was observed
same,EC50,[28],70 nM
same,behavioral or other functional changes,[29],did not elicit any
same,genotoxicity,[30],not genotoxic
same,EC50,[31],10 nM
same,NOAEL,[32],2000 mg/kg
same,cleavage metabolites,[33],not seen
same,extracellular virus (CEV and EEV) formation,[34],inhibits
same,protection from lethal infection,[35],protect
same,"Optimal oral dose mg/kg, s.i.d.",[36]; po,3 mg/kg
same,Time of treatment,[36],96h.p.i. (100%)
same,Time of treatment (% efficacy),[36],96h.p.i. (100%)
same,protection from death,[36],100%
same,protection from lethal infection,[36],100%
same,inhibition of clinical isolates in cell culture,[37],inhibited
same,growth of cells,[38],not affected
same,inhibition of clinical isolates in cell culture,[39],inhibited
same,metabolism by cytochrome P450 isozymes,[40],not metabolized to any significant degree
same,inhibition at 300 µM,[41],< 50%
same,protection from death,[42],100%
same,increase in AUC values (accumulation),[43]; 1000 mg/kg,approximately 25%
same,increase in AUC values (accumulation),[43]; 2000 mg/kg,approximately 50%
same,terminal elimination half-life,[43]; once a day dosing,approximately four
same,"Optimal oral dose mg/kg, s.i.d.",[44]; po,100 mg/kg
same,Time of treatment,[44],72 h.p.i. (100%)
same,Time of treatment (% efficacy),[44],72 h.p.i. (100%)
same,"Optimal oral dose mg/kg, s.i.d.",[45]; po,100 mg/kg
same,Optimal dose duration,[45],>5 days (100%)
same,Optimal dose duration (% efficacy),[45],>5 days (100%)
same,Time of treatment,[45],72 h.p.i. (100%)
same,Time of treatment (% efficacy),[45],72 h.p.i. (100%)
same,inhibition at 300 µM,[46],< 50%
same,CYP induction,[47],induction was observed
same,"Optimal oral dose mg/kg, s.i.d.",[48]; po,100 mg/kg
same,Optimal dose duration,[48],>7 days (93%]
same,Optimal dose duration (% efficacy),[48],>7 days (93%]
same,Time of treatment,[48],48 h.p.i. (93%)
same,Time of treatment (% efficacy),[48],48 h.p.i. (93%)
same,protection from lethal infection,[49],protected animals from lethal infection
same,"protection from lethal infection, latest administration",[49],as late as five days post-inoculation
same,plaque formation,[50],inhibits
same,cleavage liberating 4-trifluoromethylbenzoic acid,[51],small amounts of ST-246 were cleaved
same,"Optimal oral dose mg/kg, s.i.d.",[52]; po,100 mg/kg
same,Optimal dose duration,[52],>5 days (100%]
same,Optimal dose duration (% efficacy),[52],>5 days (100%]
same,plasma protein binding,[53],moderate to high
same,latest treatment initiation for full protection,[54],≤ 72 hours post-infection
same,optimal dosing period,[54]; 100 mg/kg,greater than seven days
same,optimal once per day oral dose for protective efficacy,[54]; po,100 mg/kg
same,protection from systemic disease,[55],protects mice from systemic disease
same,CC50,[56],> 50000 nM
same,no observable effect level (NOEL),[57],2000 mg/kg
